In patent US8093393B2, “Cationic ceramides, and analogs thereof, and their use for preventing or treating cancer” (MUSC Foundation for Research Development, priority 2004, dated 2012):
pIC50: −log10 of the molar value. Like-named read-outs stand apart in the source and are kept apart here.

Columns and labels:
telomeres = assay: Telomere length (TRF) in tumor tissues; format: in vivo, human; details: versus untreated controls
Source text: FIG. 29. […] In (B), DNA samples obtained from tumors treated with GMZ (G), L-t-C6-Pyr-Cer (Cer), and the combination of L-t-C6-Pyr-Cer with GMZ (G/C, lanes 2-4, respectively) were compared to that of untreated (U) tumors (lane 1). Lanes 5 and 6 contain DNA samples with low (L) and high (H) molecular weight (3.9 and 10.2 kb, respectively) telomeres. In (D) The levels of hTERT protein in samples obtained from tumors treated with GMZ (G), L-t-C6-Pyr-Cer (Cer), and the combination of L-t-C6-Pyr-Cer with GMZ (G/Cer, lanes 2-4, respectively) were determined by Western blot analysis using rabbit polyclonal anti-hTERT antibody, and compared to that of untreated (U) tumors (lane 1). Lanes 5 and 6 contain samples from telomerase positive (+) and negative (−) extracts. Beta-actin levels of these samples were used as loading controls (lanes 1-6, lower panel). The data shown are representative of two independent trials, and error bars represent standard deviations.
Analysis of telomere length in tumor tissues. The measurement of telomere length was performed in total genomic DNA samples isolated from tumor tissues of the SCID mice using Telomere Restriction Fragment (TRF) Length measurement kit (Roche) by Southern blotting as described in Sundararaj, et al. J Biol Chem 2004; 279:6152-6162.

UM-SCC-1 cells = assay: MTT cell survival assay; format: cell-based, human; details: UM-SCC-1, 48 hr; read-out: IC50, growth
Experimental: Cell lines and culture conditions. […] Cells were grown in DMEM containing 10% FCS and 1% penicillin/streptomycin at 37° C. in 5% CO2. The Wi-38 human lung fibroblasts were obtained from American Type Culture Collection, and were grown in DMEM as described above. Adult human epidermal keratinocytes were purchased from Cascade Biologics, and were maintained in EpiLife medium with growth supplements as described by the manufacturer.
MTT cell survival assay and isobologram studies. […] Triplicate wells were used for each treatment. The final concentration of DMSO (a solvent for conventional ceramides, GMZ and DOX) in the growth medium was less than 0.1% (v/v) which has no effect on cell growth and survival. Pyridinium ceramides were dissolved in sterile water or growth medium. In short, after cells (5-10×10^3/well) were seeded in 96-well-plates for 24 hr, they were treated with increasing concentrations of ceramide analogs for an additional 48 or 96 hr. For combination treatments, ceramides and chemotherapeutic agents (gemcitabine (GMZ) or doxorubicin (DOX)) were added to the growth medium simultaneously during treatment. Isobologram plots were then constructed using IC50 values of the two agents alone or in combination obtained from MTT assays. […]

UM-SCC-22A cells = details: 1 μM
Experimental: B) The subcellular accumulation of L-t-C6-Pyr-Cer at 1-48 hr was detected by LC/MS in UM-SCC-22A cells after differential centrifugation, as described in Materials and Methods.
Subcellular fractionation, and the analysis of ceramide subspecies by mass spectroscopy (MS). The sub-cellular accumulation of L-t-C6-Pyr-Cer was analyzed by utilizing normal phase high performance liquid chromatography and mass spectroscopy (LC/MS). […] In short, cells were incubated in a buffer containing 300 mM sucrose, 10 mM Hepes (pH 7.4), 1 mM EDTA and 0.5 mM PMSF for 30 minutes on ice. The cells were then passed through 25-gauge needle for 5 strokes, and centrifuged at 1,000×g for 10 mM, 10,000×g for 10 min, and 100,000×g for 60 min at 4° C., for collection of the nuclei-, mitochondria-enriched fractions, and microsomes, respectively.

Experimental for UM-SCC-22A xenografts: A) Upper Panel: In vivo therapeutic efficacy of L-t-C6-Pyr-Cer in combination with GMZ was determined in SKID mice harboring the UM-SCC-22A xenografts implanted in both flanks. The animals were treated with L-t-C6-Pyr-Cer and GMZ at 40 mg/kg/each every 4 days for 20 days. […] In these experiments, each group contained 6 mice, harboring 12 tumors, in this study. Error bars represent standard deviations, and p values were calculated. […] C) The blood counts, the levels of serum enzymes, and electrolytes were analyzed in response to L-t-C6-Pyr-Cer alone or in combination with GMZ in SKID mice.
After tumors were grown to about 200-400 mm^3 (about two weeks after implantation), the mice were treated without or with chemotherapeutic agents with intraperitoneal (IP) injection (alone or in combination) at half of their maximum tolerated doses (MTD) every 4 days for 20 days. Tumor volumes and the weights of the animals were measured before each treatment, and tumor sizes were measured at the end of the study. The endpoint was tumor rate of growth and/or tumor volume, which was calculated using the formula: length×width^2×0.52. Each experiment included at least 6 mice (which harbored two SCC tumors in flanks) per each treatment, and experiments were done at least in two independent trials.

CCCCCCCCCCCCC/C=C/[C@H](O)[C@H](CO)NC(=O)CCCCC[n+]1ccccc1.[Br-] [LCL124, L-threo-2-N-[6′-(1″-Pyridinium)-hexanoyl]-sphingosine Bromide]
reduction of TRF (telomere) length in tumors (telomeres): about 500 bp
pIC50 (UM-SCC-1 cells): 5.70 to 6.00
inhibition of HNSCC tumor growth (UM-SCC-22A xenografts; 40 mg/kg/each IP every 4 days for 20 days): some inhibition of HNSCC tumor growth
blood counts, serum enzyme activities and electrolytes (UM-SCC-22A xenografts; about 20 parameters): no detectable abnormalities
toxicity to vital organs, histopathology (UM-SCC-22A xenografts; after completion of the study): no detectable toxicity
amount in supernatant or pellet of 100,000×g fractions (UM-SCC-22A cells): either not detectable (at 1-6 hr), or minimal (at 12-48 hr)
level in the 10,000×g (mitochondria enriched) fraction (UM-SCC-22A cells; 3-48 hr): 1,000-3,000 pmol/0.1 mg protein
level in the 1,000×g (nuclei enriched) fraction (UM-SCC-22A cells; 6-48 hr): 250-2,500 pmol/0.1 mg protein
level in the intestines (absence of GMZ): about 120 pmol/mg protein
level in the liver (absence of GMZ): ~100 pmol/mg protein
fold higher level in tumors than in intestines or liver (absence or presence of GMZ): 3-6 fold
level in the tumors (combined with GMZ): 3,100 pmol/mg
increase of level in the tumors when combined with GMZ (mouse, in vivo): about 40%
level in the intestines (presence of GMZ): 1,000 pmol/mg protein
level in the liver (presence of GMZ): 300 pmol/mg protein
accumulation in the tumor site (single agent): about 2,200 pmol/mg
